US6881577B2, “Method for improving transfection efficiency” (Max-Delbrück-Centrum für Molekulare Medizin, priority 2000, dated 2005)

Assays:
[1] = system: human colon carcinoma cells (HCT 116); assay: Transfection of HCT 116 cells with plasmid DNA/peptide complexes (with or without LIPOFECTIN), luciferase reporter gene expression; type: cell-based
Text: Complexes consisting in plasmid DNA, peptide and lipid were formed and used in transfection experiments of human colon carcinoma cells (HCT 116) in vitro. The luciferase reporter gene was used in order to measure the transfection efficiency.
In addition to the construction of the mentioned K16 peptides the invention consists in the construction of DNA-peptide-lipid-complexes. A critical issue is thereby the composition of the complexes through the selection of an appropriate peptide to DNA charge ratio as well as an appropriate amount of the lipid. The procedure of complex formation (involving concentrations, volume, buffer type, incubation time and the order by which the elements are sequentially added to the mixture, see FIGS. 1-3 and 4-6) is also a critical factor determining the transfection efficiency of the system.
Based on the above described procedure for the optimization of DNA-peptide-lipid-complexes different complexes containing plasmid DNA, the K16-CYC peptide and cationic liposome (LIPOFECTIN®) were formed and subsequently used in transfection experiments of HCT 116 cells.
Complexes were formed containing plasmid DNA, the K16-VprN peptide and cationic liposome (LIPOFECTIN®) and subsequently used in transfection experiments of HCT 116 cells.
In both applications, the K16-mVprN peptide was used as a control peptide instead of the K16-VprN peptide.

[2] = Dynamic light scattering of peptide/DNA complexes (apparent size, light scattering intensity); type: physicochemical; conditions: for relative size of the complexes on dilution: peptide/DNA complexes diluted up to 1:16, FIGS. 13 and 14
Description: In order to exclude the possibility that the observed enhancement of the transfection efficiency was mainly related to a more favorable complex formation process when using the K16-VprN peptide, size measurements (FIG. 11) and the determination of the relative particle number (FIG. 12) using dynamic light scattering were performed. […] Indeed, at a peptide to DNA charge ratio of 3 the K16-VprN peptide generates a three-fold increase of the light scattering intensity and an increase of the reporter gene expression of at least 100-times, as compared to K16-mVprN. At a peptide to DNA charge ratio of 9 the light scattering intensity increases twice as compared to charge ratio 3. However, in these conditions the reporter gene expression only increases 10 fold.
The complexes were subsequently diluted up to 1:16 and subjected to dynamic light scattering measurements.

[3] = peptide/DNA complex without lipid, FIG. 10

| Substance | increase of the reporter gene expression compared to K16-mVprN ([1]; peptide to DNA charge ratio of 3, without lipid, FIG. 10) | increase of the reporter gene expression ([1]; peptide to DNA charge ratio of 9, without lipid, FIG. 10) [fold] | amount of peptide giving the highest gene expression, less than for K16-mVprN [1, 3] [times] | increase of the maximum reporter gene expression level compared to K16-mVprN [1, 3] [fold] | reporter gene expression compared to the control peptide K16-mVprN ([1]; with and without LIPOFECTIN, FIGS. 9 and 10) | particle size of DNA complexes compared to K16-mVprN ([2]; dynamic light scattering, FIG. 11) | increase of the light scattering intensity compared to K16-mVprN ([2]; peptide to DNA charge ratio of 3, FIG. 12) | increase of light scattering intensity compared to charge ratio 3 ([2]; peptide to DNA charge ratio of 9, FIG. 12) | relative size of the complexes on dilution ([2]; dynamic light scattering) | reporter gene expression following transfection, compared to the K16-NLS peptide ([1]; complexes of plasmid DNA, peptide and LIPOFECTIN (0.5 or 1 μl), FIGS. 7 and 8) |
| --- | --- | --- | --- | --- | --- | --- | --- | --- | --- | --- |
| KKKKKKKKKKKKKKKKGGGCNEWTLELLEELKNEAVRHF [K16-VprN] | at least 100 times | 10 | 12 | 10 | significant increase | no significant difference | three-fold | twice | remains nearly constant |  |
| KKKKKKKKKKKKKKKKGGGNEATLELLPELKNPAVRHF (Synthetic peptide sequence, K16-mVprN, that carries 16 lysine residues for the binding of the peptide to the plasmid DNA.) |  |  |  |  |  |  |  |  | remains nearly constant |  |
| -VKLKVYPLKKKRKP- [K16-CYC] |  |  |  |  |  |  |  |  |  | dramatic increase |
